Read-outs that look alike come from different tables or passages of the source.
Legend:
[1] = Dipole moment; format: physicochemical; settings: 40° C.
[2] = Surface tension; format: physicochemical
[3] = cited from earlier work
[4] = free acid form; cited from earlier work
[5] = tested on: velvetleaf; experiment: Bioefficacy testing with glyphosate, velvetleaf control; format: in vivo
Method: (§1) The adjuvancy of alkylene carbonates with glyphosate was then tested. Bioefficacy testing was conducted on lambsquarters and velvetleaf weeds. The mono-isopropylamine salt of glyphosate was applied to velvetleaf and lambsquarters weeds at 0.25 lb ae/acre, and the adjuvant mixtures were present at 0.1 v/v%. The spray volume was 20 gal/acre, and application was made at 25 psig.
(§2) Evaluations, with the same adjuvant mixtures listed above, were also made with ammonium sulfate (AMS) at 17 lb/100 gallons water carrier. For control purposes, a group of plants was not treated with any glyphosate, and another group of plants was treated with only glyphosate.
(§3) The two alkylene carbonate blends of PC and BC were compared to diethylene glycol (DEG) as a standard solvent in combination with two different nonionic surfactant systems. One surfactant system was a SURFONIC® N-95 alkyl phenol ethoxylate, and the second surfactant system was a SURFONIC® DDA-8 branched alcohol ethoxylate. (SURFONIC® brand ethoxylates are commercially available from Huntsman Petrochemical Corporation, Houston, Tex.).
(§4) The results are expressed in terms of percent control, where 0% represents no plant necrosis, and 100% represents complete plant necrosis.

[6] = tested on: lambsquarters; experiment: Bioefficacy testing with glyphosate, lambsquarters control; format: in vivo
Method: as §1, §2, §3, §4

[7] = Hansen Solubility Parameters of JEFFSOL brand alkylene carbonates
[8] = tested on: mammals; settings: in vivo; cited from earlier work
[9] = tested on: skin; settings: neat; cited from earlier work
[10] = tested on: guinea pigs; settings: 21-day test; cited from earlier work
[11] = tested on: dogs; settings: 21-day test; cited from earlier work
[12] = tested on: rabbits; settings: undiluted; cited from earlier work
[13] = tested on: Rat Hepatocyte Primary Culture; settings: Rat Hepatocyte Primary Culture/DNA Repair Test; cited from earlier work
[14] = criteria promulgated by the European Union; cited from earlier work
[15] = tested on: activated sludge bacteria taken from a wastewater treatment plant; settings: 7 day test at 300 ppm; cited from earlier work

SMILES | Dipole Moment [1] | Surface Tension ([2]; 25° C. (* = supercooled)) | Surface Tension ([2]; 40° C.) | Hansen Sol Par, dispersive [7] | Hansen Sol Par, hydrogen bonding [7] | Hansen Sol Par, polar [7] | Hansen Sol Par, total [7] | toxicity towards mammals [8] | also measured
O=C1OCCO1 [EC, ethylene carbonate] | 4.80 Debyes | 44.0* dynes/cm | 42.2 dynes/cm |  |  |  |  |  | 
CNC(=O)CSP(=S)(OC)OC [Cygon, dimethoate] |  |  |  |  |  |  |  |  | time to lose 50 percent of pest control power ([3]; mixed in water of pH 9): 48 min; time to lose 50 percent of pest control power ([3]; pH of 6): 720 min
O=C(O)CNCP(=O)(O)O [glyphosate, N-phosphonomethylglycine, reference compound] |  |  |  |  |  |  |  |  | water solubility [4]: low water solubility; velvetleaf control (necrosis), overall ([5]; FIG. 1, glyphosate IPA salt 0.25 lb ae/acre, adjuvant 0.1 v/v%, no AMS): very little observed necrosis; lambsquarters control (necrosis/kill), overall ([6]; FIG. 3, glyphosate 0.25 lb ae/acre, adjuvant 0.1 v/v%, no AMS): very little observed necrosis
CCC1COC(=O)O1 (stereo not drawn) [BC, 1,2-butylene carbonate] | 5.28 Debyes | 38.1 dynes/cm | 37.0 dynes/cm | 8.3 cal^1/2 cm^−3/2 | 4.8 cal^1/2 cm^−3/2 | 3.0 cal^1/2 cm^−3/2 | 10.0 cal^1/2 cm ^−3/2 | relatively low toxicity | 
CC1COC(=O)O1 (stereo not drawn) [PC, propylene carbonate] | 4.98 Debyes | 40.9 dynes/cm | 39.6 dynes/cm | 9.8 cal^1/2 cm^−3/2 | 2.0 cal^1/2 cm^−3/2 | 8.8 cal^1/2 cm^−3/2 | 13.3 cal^1/2 cm ^−3/2 | relatively low toxicity | skin irritation [9]: moderate skin irritation; toxicity by inhalation [10]: non-toxic; toxicity by inhalation [11]: non-toxic; LD50 [12]: > 20 mL/kg; genotoxicity [13]: negative; biodegradability [14]: very readily biodegradable; adverse effects on activated sludge bacteria [15]: did not show adverse effects
N.N.O=S(=O)(O)O [AMS, ammonium sulfate] |  |  |  |  |  |  |  |  | velvetleaf necrosis, overall ([5]; FIG. 2, glyphosate with AMS 17 lb/100 gallons): dramatically increases velvetleaf necrosis; lambsquarters control, overall efficacy ([6]; FIG. 4, glyphosate with AMS 17 lb/100 gallons): does not produce the dramatic improved efficacy
